Columns and labels:
Assay type in all cases: cell-based, human
PBMC from NSCLC subjects = experiment: Intracellular cytokine staining (ICS) of CD4+ and CD8+ T cells after short-term culture; conditions: for Th1 cytokine-producing CD4 and/or CD8 T cell responses: intracellular cytokine staining, FIGS. 8, 9 and 10; for level of response among the peptides in the mixture: short term culture with a combination of peptide pools
Protocol: PBMC were cultured in 2 mL culture medium (CM, RPMI1640 Glutamax supplemented with 5% untreated human AB serum (PAA) and gentamicin) in 24 well cell culture plates at a concentration of 1×10^6 cells/mL for a total of 7 days. Each pool was added at 20 μg/mL total peptide final concentration. On day 1, IL-7 (Peprotech) and IL-2 (R&D Systems) were added to the cultures to a final concentration of 5 ng/mL and 10 IU/mL respectively. On day 3, IL-2 was added at a concentration of 10 IU/mL. On day 7, cells were harvested from cell culture plates washed with culture medium and counted using TruCount (BD Biosciences) before analysis using IFNγ (interferon gamma) ELISpot assay or intracellular cytokine staining (ICS) as described below.
Short term culture of PBMC were prepared as described above, except culture conditions 1 and 2 were replaced with alternative culture conditions 1 to 5 below, each of which involves stimulation with a different combination of peptide pools:
Culture 5: P-P805_NY_ESO1
Cells from the short-term cultures were plated in a 96 well round bottom plate at 5×10^5 PBMC/well stimulated with individual peptide pools used at a concentration of 5 μg/peptide/mL. Plates were incubated at 37° C. in a 5% CO2 incubator for 20h. PMA/Ionomycin was added to respective wells and Golgi plug (BD Biosciences) was added to all wells after the first 3h of the assay. The cells were harvested and washed with PBS+0.1% BSA (wash buffer) and stained with anti-CD3, anti-CD4 and anti-CD8 (BD Biosciences) for 30 minutes at 4° C. After another wash, the cells were fixed and permeabilised with 100 μL of Cytofix/Cytoperm solution (BD Biosciences) for 20 minutes at 4° C., followed by two washes with 1× Perm/Wash solution (BD Biosciences). Finally, cells were stained with ant-IL-2-FITC, anti-IFNγ-PE and anti-TNFα PerCP-Cy5.5 (BD Biosciences) for 30 minutes at 4° C. Samples were acquired on a FACSCanto II flow cytometer (BD Biosciences). Gating was based on isotype control antibody staining and media stimulated samples for each subject.

[1] = test system: PBMC from individuals with non-small cell lung cancer (NSCLC); experiment: IFNγ ELISpot after 7 day short-term culture, NSCLC patients (Example 3); conditions: for IFN-γ ELISpot spot intensity in NSCLC patients compared with healthy subjects: FIG. 7, Mann-Whitney unpaired test; for responder frequency: NSCLC patients, percentage of patients with peptide responses of greater than 500 SFC/million, peptide pools 5 μg/peptide/mL
[2] = test system: PBMC from healthy subjects; experiment: Peptide-specific T cell responses by IFN-γ ELISpot after short term culture, healthy subjects (Example 2); conditions: positive response = SFC/10^6 PBMC greater than 20, pools of overlapping 18-mer peptides at 5 μg/peptide/mL
Protocol: Peptide-specific T cell responses were evaluated in peripheral mononuclear cells obtained from healthy subjects. After thawing, PBMC were cultured in 24-well flat bottom plates (or 48-well bottom plates) at a density of 1 million cells per ml in the presence of culture medium (RPMI 1640 Medium, Glutamax™ (Life Technologies) with 5% (v/v) human AB Serum (PAA Laboratories Ltd)) and a pool of peptides (composed of P103-P53, P513_MAGE3, P679_MAGE3, P805_NY_ESO1, P1575_HER, P2238-HER, P3825_MUC1, P3776_MUC1, P4540_hTERT, P4575_hTERT, P5400_MAGE1, P-HAGE) at a total final concentration of 20 μg/mL.
The plates were incubated at 37° C. in a 5% CO2 incubator and on Day 4, recombinant human IL-2 and IL-15 (R&D Systems) were added to each well at final concentrations of 10 IU/ml and 10 ng/mL respectively. On Day 7, PBMC cultures were removed and washed in culture medium and replaced back into wells in culture medium containing 10 IU/mL of IL-2. After overnight resting at 37° C. in a 5% CO2 incubator, cells were removed, counted and assessed for viability. PVDF plates (MSIPS4510, Millipore) were coated with anti-human IFN-γ antibody (R&D systems) and incubated overnight at 4° C. Plates were then washed and incubated with blocking buffer (1% BSA (PAA), 5% sucrose (Fisher), Dulbecco's-PBS (Invitrogen)) for at least 1 hour and finally washed with culture medium before use. […] After 18 hours of culture, plates were washed and incubated with a biotinylated secondary anti-human IFN-γ antibody (R&D systems) followed by streptavidin-AP. Production of IFN-γ was detected using the ELISpot blue colour module (R&D Systems) as per manufacturer's instructions. Plates were scanned and wells were counted using an automated ELISpot plate reading system equipped with spot counting software (Cellular Technology Limited). Results are expressed as Spot Forming Cells (SFC)/10^6 PBMC and background responses represented by IFNγ SFC of PBMC in culture medium alone have been subtracted for each subject. Positive response was defined as number of Spot Forming Cells (SFC)/10^6 PBMC greater than 20.

[3] = test system: PBMC from healthy individuals; experiment: IFNγ ELISpot after 7 day short-term culture, healthy individuals (Example 3); conditions: healthy subjects (FIGS. 3 and 5)

Sequence	Th1 cytokine-producing CD4 and/or CD8 T cell responses (PBMC from NSCLC subjects)	IFN-γ ELISpot spot intensity in NSCLC patients compared with healthy subjects [1]	responder frequency [1] [%]	frequency of responding subjects [2] [%]	also measured
PARYEFLWGPRALAETSYVKVLEYVIKVSARVRFFFPSLREA (listed as Homo sapiens) [P5400_MAGE1]	ability to promote Th1 cytokine-producing CD4 and/or CD8 T cell responses	significantly lower	27.41	100	level of response among the peptides in the mixture (PBMC from NSCLC subjects): highest level of response
AGIRRDGLLLRLVDDFLLVTPHLTHAKTFLRTLVRGVPEYG (listed as Homo sapiens) [P4862_TERT]					responder frequency ([1]; listed as P4862_hTERT): 7.93%
VQGYVLIAHNQVRQVPLQRLRIVRGTQLFEDNYALAVL (listed as Homo sapiens) [P1575_HER]			16.12	100	
LGLSYDGLLGDNQIMPKAGLLIIVLAIIAREGD (listed as Homo sapiens) [P590-MAGE3]			15.87		
TSSNHSTSPQLSTGVSFFFLSFHISNLQFNSSLEDPST (listed as Homo sapiens) [P3776_MUC1]			4.76	100	
GAQYRIHTHGVFRGIQDVRRVPGVAPTLVRSASETSEKRPF (listed as Homo sapiens) [P1331_WT1]			5.08		
TFQKNRLFFYRKSVWSKLQSIGIRQHLKRVQLRELSEAEVR (listed as Homo sapiens) [P4575_hTERT]	ability to promote Th1 cytokine-producing CD4 and/or CD8 T cell responses			100	
YEFLWGPRALVETSYVKVLHHMVKISGGPHISYPPLH (listed as Homo sapiens) [P679_MAGE3]	ability to promote Th1 cytokine-producing CD4 and/or CD8 T cell responses	significantly lower	28.57	80	
RGPESRLLEFYLAMPFATPMEAELARRSLAQDAPPLPVPG (listed as Homo sapiens) [P805_NY_ESO1]	ability to promote Th1 cytokine-producing CD4 and/or CD8 T cell responses	significantly lower	34.92	50	level of response among the peptides in the mixture (PBMC from NSCLC subjects): highest level of response
EMFLQIYKQGGFLGLSNIKFRPGSVVVQLTLAFREGTINVH (listed as Homo sapiens) [P3825_MUC1]			8.06	17	
QTGTGKTLCYLMPGFIHLVLQPSLKGQRNRPGMLV (listed as Homo sapiens) [P-HAGE]	ability to promote Th1 cytokine-producing CD4 and/or CD8 T cell responses	significantly lower		50	
RLLQLHITMPFSSPMEAELVRRILSRDAAPLPRPGAVL (listed as Homo sapiens) [P5525_LAGE1]	ability to promote Th1 cytokine-producing CD4 and/or CD8 T cell responses	significantly lower	31.03		
ILESLFRAVITKKVADLVGFLLLKYRAREPVTKAEMLESVIK (listed as Homo sapiens) [P5232_MAGE1]	ability to promote Th1 cytokine-producing CD4 and/or CD8 T cell responses	significantly lower	32.25		
AFLSVKKQFEELTLGEFLKLDRERAKNKIAKETNNKKKE (listed as Homo sapiens) [P991_SURVIVIN]			14.51		
HRLREEILAKFLHWLMSVYVVELLRSFFYVTETTFQKNR (listed as Homo sapiens) [P4540_hTERT]	ability to promote Th1 cytokine-producing CD4 and/or CD8 T cell responses	significantly lower	23.43	67	
HREARPALLTSRLRFIPKPDGLRPIVNMDYVVGARTFRREK [P4616_hTERT]	ability to promote Th1 cytokine-producing CD4 and/or CD8 T cell responses		37.50		
GENVKIPVAIKVLRENTSPKANKEILDEAYVMAGVGSPYVSRKK (listed as Homo sapiens) [P2238-HER]			10.00	83	
MTPGTQSPFFLLLLLTVLTVVTGSGHASSTPGG (listed as Homo sapiens) [P2753_MUC1]			4.76		
PALGSTAPPVHNVTSASGSASGSASTLVHNGTSARATTTPASK (listed as Homo sapiens) [P3698_MUC1]			14.06		
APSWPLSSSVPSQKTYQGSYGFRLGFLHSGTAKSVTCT (listed as Homo sapiens) [P103-P53]	ability to promote Th1 cytokine-producing CD4 and/or CD8 T cell responses	significantly lower		100	
SVVGNWQYFFPVIFSKASSSLQLVEGIELMEVDPIGHLYIF (SVVGNWQYFFPVIFSKASSSLQLVFGIELMEVDPIGHLYIF; listed as Homo sapiens) [P550_MAGE3]	ability to promote Th1 cytokine-producing CD4 and/or CD8 T cell responses	significantly lower			level of response among the peptides in the mixture (PBMC from NSCLC subjects): highest level of response
RTFRREKRAERLTSRVKALFSVLNYERARRPGLLGASVLGLDDI (listed as Homo sapiens) [P4650_hTERT]	ability to promote Th1 cytokine-producing CD4 and/or CD8 T cell responses	significantly lower	38.70		
RAVRSLLRSHYREVLPLATFVRRLGPQGWRLVQRGDPAAFRA (listed as Homo sapiens) [P4020_hTERT]	ability to promote Th1 cytokine-producing CD4 and/or CD8 T cell responses	significantly lower	32.81		
PDGPGGNAGGPGEAGATGGRGPRGAGAARASGPGGGAP (listed as Homo sapiens) [P750-NYESO, used as a negative control peptide]			3.12		magnitude of response and responder frequency ([1]; NSCLC patients (FIGS. 2 and 4)): amongst the lowest responding peptides; magnitude of response and responder frequency [3]: amongst the lowest responding peptides
EFQAALSRKVAELVHFLLLKYRAREPVTKAEMLG (listed as Homo sapiens) [P513_MAGE3]			18.46	50	
